Experimental data reported in ChEMBL document CHEMBL1141150, “Synthesis of classical, four-carbon bridged 5-substituted furo[2,3-d]pyrimidine and 6-substituted pyrrolo[2,3-d]pyrimidine analogues as antifolates” (J Med Chem, 2005).

How the values were obtained:
Thymidylate synthase [1] = target: Thymidylate synthase (Homo sapiens, UniProt P04818); assay: Inhibition of human thymidylate synthetase at 37 degree C pH 7.4
[2] = Ratio of Vmax, rel to Km (FPGS substrate activity) for recombinant human FPGS; type: ADME
[3] = Vmax, rel (FPGS substrate activity) for recombinant human FPGS; type: ADME
Thymidylate synthase [4] = target: Thymidylate synthase (Escherichia coli, UniProt C3SWJ7); assay: Inhibition of Escherichia coli thymidylate synthetase at 37 degree C pH 7.4
Sequence of Thymidylate synthase (Escherichia coli, UniProt C3SWJ7) (C3SWJ7 whole entry): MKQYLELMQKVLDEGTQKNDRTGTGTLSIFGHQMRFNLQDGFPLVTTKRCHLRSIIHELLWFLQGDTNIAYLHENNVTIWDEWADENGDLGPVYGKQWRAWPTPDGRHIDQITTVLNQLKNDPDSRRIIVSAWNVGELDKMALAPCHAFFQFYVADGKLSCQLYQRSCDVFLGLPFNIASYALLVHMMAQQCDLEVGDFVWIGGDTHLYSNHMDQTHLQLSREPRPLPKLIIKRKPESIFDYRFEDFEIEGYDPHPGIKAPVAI

Thymidylate synthase [5] = target: T1, Thymidylate synthase (Lactobacillus casei, UniProt P00469); assay: Inhibition of Lactobacillus casei thymidylate synthetase at 37 degree C pH 7.4; set-up: species or system Lacticaseibacillus casei
T1 sequence (P00469 whole entry): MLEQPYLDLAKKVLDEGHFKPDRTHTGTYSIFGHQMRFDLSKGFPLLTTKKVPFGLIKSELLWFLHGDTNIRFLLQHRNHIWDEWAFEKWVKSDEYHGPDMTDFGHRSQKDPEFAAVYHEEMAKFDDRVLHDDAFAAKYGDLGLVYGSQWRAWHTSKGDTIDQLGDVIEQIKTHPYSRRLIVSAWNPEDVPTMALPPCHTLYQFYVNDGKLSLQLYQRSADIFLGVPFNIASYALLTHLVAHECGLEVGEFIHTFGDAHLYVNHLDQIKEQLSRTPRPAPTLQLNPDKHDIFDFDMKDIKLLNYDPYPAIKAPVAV

CCRF-CEM [6] = assay: Growth inhibitory activity against CCRF-CEM human lymphoblastic leukemia cells; type: functional, cell-based
CCRF-CEM [7] = assay: Growth inhibitory activity against MTX resistant subline of CCRF-CEM human lymphoblastic leukemia cells; type: functional, cell-based
CCRF-CEM [8] = assay: Growth inhibitory activity against resistant CCRF-CEM human lymphoblastic leukemia cells with decreased uptake of MTX; type: functional, cell-based
CCRF-CEM [9] = assay: Growth inhibitory activity against MTX resistant CCRF-CEM human lymphoblastic leukemia cells with decreased polyglutamylation; type: functional, cell-based
Dihydrofolate reductase [10] = target: T2, Dihydrofolate reductase (Escherichia coli, UniProt P0ABQ4)
T2 sequence (P0ABQ4 whole entry): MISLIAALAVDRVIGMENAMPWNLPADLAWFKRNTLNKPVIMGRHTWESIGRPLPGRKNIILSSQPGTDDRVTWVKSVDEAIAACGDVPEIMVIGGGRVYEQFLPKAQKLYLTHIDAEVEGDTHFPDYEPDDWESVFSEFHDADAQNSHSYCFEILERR
Description: Inhibition of Escherichia coli dihydrofolate reductase at 37 degree C pH 7.4

Dihydrofolate reductase [11] = target: T3, Dihydrofolate reductase (Homo sapiens, UniProt P00374)
T3 sequence (P00374 whole entry): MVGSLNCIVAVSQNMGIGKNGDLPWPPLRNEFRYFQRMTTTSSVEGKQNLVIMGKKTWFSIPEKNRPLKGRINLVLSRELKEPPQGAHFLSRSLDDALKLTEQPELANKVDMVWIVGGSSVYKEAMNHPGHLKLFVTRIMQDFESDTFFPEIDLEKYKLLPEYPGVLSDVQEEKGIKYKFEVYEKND
Description: Inhibition of human dihydrofolate reductase at 37 degree C pH 7.4

Dihydrofolate reductase [12] = target: Dihydrofolate reductase (Lactobacillus casei, UniProt P00381)
Sequence of Dihydrofolate reductase (Lactobacillus casei, UniProt P00381) (P00381 whole entry): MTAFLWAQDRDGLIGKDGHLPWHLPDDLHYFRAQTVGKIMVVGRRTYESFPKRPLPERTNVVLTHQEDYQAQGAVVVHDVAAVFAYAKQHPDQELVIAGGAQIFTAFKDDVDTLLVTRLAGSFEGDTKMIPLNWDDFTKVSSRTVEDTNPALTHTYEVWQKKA
Description: Inhibition of Lactobacillus casei dihydrofolate reductase at 37 degree C pH 7.4

786-0 = assay: Cytotoxicity of compound against 786-0 renal cancer cell line; type: functional; conditions: Homo sapiens
SW-620 = assay: Cytotoxicity of compound against SW-620 colon cancer cell line; type: functional; conditions: Homo sapiens
CCRF-CEM [13] = assay: Protection of CCRF-CEM human leukemia cells against the growth inhibitory effect of MTX by 5 uM of thymidine at 5000 nM concentration of compound; type: functional
CCRF-CEM [14] = assay: Protection of CCRF-CEM human leukemia cells against the growth inhibitory effect of MTX by 10 uM of hypoxanthine at 5000 nM concentration of compound; type: functional
CCRF-CEM [15] = assay: Protection of CCRF-CEM human leukemia cells against the growth inhibitory effect of MTX by 10 uM of hypoxanthine and 5 uM of thymidine at 5000 nM concentration of compound; type: functional
SR = assay: Cytotoxicity of compound against SR leukemia cell line; type: functional; conditions: Homo sapiens
HL-60 = assay: Cytotoxicity of compound aganist HL-60 leukemia cell line; type: functional; conditions: Homo sapiens
K562 = assay: Cytotoxicity of compound against […] leukemia cell line; type: functional; conditions: Homo sapiens

Sequence of Thymidylate synthase (Homo sapiens, UniProt P04818) (P04818 whole entry): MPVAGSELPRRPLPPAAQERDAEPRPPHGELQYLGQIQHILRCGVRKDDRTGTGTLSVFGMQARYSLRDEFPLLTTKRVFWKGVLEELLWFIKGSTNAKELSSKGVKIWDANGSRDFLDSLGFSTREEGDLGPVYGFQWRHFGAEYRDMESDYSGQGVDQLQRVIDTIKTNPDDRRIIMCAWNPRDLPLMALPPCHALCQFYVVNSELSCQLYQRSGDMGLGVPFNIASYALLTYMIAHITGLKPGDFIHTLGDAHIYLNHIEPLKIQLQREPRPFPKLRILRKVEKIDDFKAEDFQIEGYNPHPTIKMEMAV

SMILES: Nc1nc2[nH]cc(CCc3ccc(C(=O)N[C@@H](CCC(=O)O)C(=O)O)cc3)c2c(=O)[nH]1 [PEMETREXED]
- Ki (Thymidylate synthase [1]): 0.34 µM

SMILES: Nc1nc(N)c2nc(CNc3ccc(C(=O)N[C@@H](CCC(=O)O)C(=O)O)cc3)cnc2n1 [AMINOPTERIN]
- Ratio [2]: 0.19
- Vmax rel [3]: 1

SMILES: Nc1nc2[nH]c(CCCc3ccc(C(=O)N[C@@H](CCC(=O)O)C(=O)O)cc3)cc2c(=O)[nH]1
- IC50 (Thymidylate synthase [1]): > 17 µM
- Ratio [2]: 0.63
- IC50 (Thymidylate synthase [4]): > 180 µM
- IC50 (Thymidylate synthase [5]): > 100 µM
- EC50 (CCRF-CEM [6]): 0.46 µM
- EC50 (CCRF-CEM [7]): 0.86 µM
- EC50 (CCRF-CEM [8]): 4.35 µM
- EC50 (CCRF-CEM [9]): 0.47 µM
- Vmax rel [3]: 0.57
- IC50 (Dihydrofolate reductase [10]): 22 µM
- IC50 (Dihydrofolate reductase [11]): > 24 µM
- IC50 (Dihydrofolate reductase [12]): > 110 µM

SMILES: Nc1nc2[nH]c(CCCCc3ccc(C(=O)N[C@@H](CCC(=O)O)C(=O)O)cc3)cc2c(=O)[nH]1
- GI50 (786-0): 0.898 µM
- GI50 (SW-620): 3.81 µM
- Relative growth (CCRF-CEM [13]): 18%
- Relative growth (CCRF-CEM [14]): 85%
- Relative growth (CCRF-CEM [15]): 85%
- IC50 (Thymidylate synthase [1]): > 17 µM
- Ratio [2]: 0.086
- IC50 (Thymidylate synthase [4]): > 170 µM
- IC50 (Thymidylate synthase [5]): > 100 µM
- EC50 (CCRF-CEM [6]): 1.1 µM
- EC50 (CCRF-CEM [7]): 3.05 µM
- EC50 (CCRF-CEM [8]): 8.1 µM
- GI50 (SR): 0.609 µM
- GI50 (HL-60): 6.56 µM
- GI50 (K562): 0.398 µM
- EC50 (CCRF-CEM [9]): 18 µM
- Vmax rel [3]: 0.54
- IC50 (Dihydrofolate reductase [10]): 100 µM
- IC50 (Dihydrofolate reductase [11]): > 20 µM
- IC50 (Dihydrofolate reductase [12]): > 110 µM

SMILES: Nc1nc(N)c2c(CCCCc3ccc(C(=O)N[C@@H](CCC(=O)O)C(=O)O)cc3)coc2n1
- GI50 (786-0): > 100 µM
- GI50 (SW-620): 0.0783 µM
- Relative growth (CCRF-CEM [13]): 20%
- Relative growth (CCRF-CEM [14]): 21%
- Relative growth (CCRF-CEM [15]): 74%
- IC50 (Thymidylate synthase [1]): > 18 µM
- Ratio [2]: 0.27
- IC50 (Thymidylate synthase [4]): > 100 µM
- IC50 (Thymidylate synthase [5]): > 100 µM
- EC50 (CCRF-CEM [6]): 0.12 µM
- EC50 (CCRF-CEM [7]): 4.85 µM
- EC50 (CCRF-CEM [8]): 0.265 µM
- GI50 (SR): 0.0478 µM
- GI50 (HL-60): 0.0381 µM
- GI50 (K562): 0.214 µM
- EC50 (CCRF-CEM [9]): 3.15 µM
- Vmax rel [3]: 0.54
- IC50 (Dihydrofolate reductase [10]): 21 µM
- IC50 (Dihydrofolate reductase [11]): 21 µM
- IC50 (Dihydrofolate reductase [12]): 10 µM

SMILES: Nc1nc(N)c2c(CCc3ccc(C(=O)N[C@@H](CCC(=O)O)C(=O)O)cc3)coc2n1
- Ratio [2]: 0.07
- Vmax rel [3]: 0.65

SMILES: Nc1nc(N)c2c(CCCc3ccc(C(=O)N[C@@H](CCC(=O)O)C(=O)O)cc3)coc2n1
- EC50 (CCRF-CEM [6]): 0.06 µM
- EC50 (CCRF-CEM [7]): ≥ 4.6 µM
- EC50 (CCRF-CEM [8]): 1.05 µM
- EC50 (CCRF-CEM [9]): 0.084 µM
- IC50 (Dihydrofolate reductase [12]): 10 µM
